Test results as given in patent publication US8630703B2, “Treatment utilizing hydrophobic weak bases chemotherapeutic agents and illumination” (Technion Research & Development Foundation Limited, priority 2011, dated 2014).

Tests used:
A549/K1.5 cells [1] = test: Live cell fluorescent imaging (lysosomal localization and photodestruction); format: cell-based, Human; details: for effect on lysosomal accumulation of C-1330: pre-incubation 10 mM ammonium chloride 30 min or 1 μM bafilomycin A1 60 min
Procedure: (§1) Lysosomes and mitochondria were stained by incubating the cells 100 nM LysoTracker® Red or 100 nM MitoTracker® Red, respectively, for 1 hour. For subcellular localization of C-1330, cells were also stained with 10 μM C-1330 for 30 minutes.
(§2) Nuclear staining was performed prior to fluorescence imaging by replacing the growth medium with medium containing 2 μg/ml Hoechst 33342, followed by incubation for 10 minutes. Prior to nuclear staining, A549/K1.5 cells were incubated for 1 hour with 10 μM fumitremorgin C (FTC) to prevent efflux of Hoechst 33342 by ABCG2.
(§3) Live cell fluorescent imaging was performed using an Axiovert 200 inverted fluorescence microscope (Carl Zeiss) equipped with a digital camera. […] Light intensity was maintained at 12.5% of the maximum. The magnification used was ×630.
(§4) Cells were pre-incubated with 10 mM ammonium chloride for 30 minutes or with 1 μM bafilomycin A1 for 60 minutes, prior to being incubated with 10 μM C-1330 for 30 minutes as described hereinabove. Ammonium chloride and bafilomycin A1 remained present during the incubation with C-1330.
A549/K1.5 cells were incubated with 10 μM doxorubicin for 30 minutes, and then observed and illuminated (at 470 nm) by live cell fluorescent imaging as described in the Materials and Methods section. Upon illumination, the cells were photographed every second, in order to observe changes in the cells over time.

A549 cells [2] = test: Lysosome quantification by LysoTracker Red fluorescence; format: cell-based, Human; details: for increase in lysosomal fluorescence compared to untreated cells: 20 μM
Procedure: A549 cells were seeded in 96-well plates at a concentration of 500 cells/well for the 48 hour chloroquine treatment, or at a concentration of 1000 cells/well for the 24 hour chloroquine treatment, in a total volume of 100 μl of medium per well. Following an overnight incubation, chloroquine was then added at the indicated concentrations for 24 or 48 hours. Lysosomes were then stained with LysoTracker® Red, detected by fluorescent imaging as described hereinabove, and quantified using EZQuant software.

A549 cells [3] = test: Live cell fluorescent imaging (lysosomal localization and photodestruction); format: cell-based, Human; details: pre-incubation 10 mM ammonium chloride 30 min or 1 μM bafilomycin A1 60 min
Procedure: as §1, §2, §3, §4
Monolayers of A549 cells were grown in glass-bottom plates and were washed in growth medium. The medium was then replaced with a special isotonic balanced salt solution lacking or containing either N,N′-dimethylthiourea (DMTU), a potent hydroxyl radical and hydrogen peroxide scavenger, L-histidine, a hydroxyl radical and singlet oxygen radical (^1O2) scavenger, or sodium azide, a singlet oxygen radical scavenger. The salt solution consisted of 10 mM HEPES pH 7.4, 120 mM NaCl, 5 mM KCl, 1 mM CaCl2, 1 mM MgCl2, and 25 mM glucose. After incubation for 1 hour, C-1330 was added to the aforementioned solution buffer for an additional 30 minutes, during which the scavengers remained present, in order to load lysosomes. The cells were then examined by fluorescent imaging as described hereinabove.

[4] = tested on: chicken chorioallantoic membrane (CAM) vasculature; test: Chorioallantoic membrane (CAM) model of photodynamic therapy; format: in vivo; details: for vascular effect in illuminated area: 420 nm
Procedure: Fertilized chicken eggs (Animalco AG) were labeled and transferred into a hatching incubator with a relative air humidity of 65% and a temperature of 37° C. The incubator was equipped with an automatic fan (Savimat). On embryonic development day (EDD) 3, a hole of approximately 3 mm in diameter was opened in the eggshell above the air pouch of the egg and covered with Parafilm® wrapping film (Pechiney) to prevent dehydration and possible infections. The eggs were then returned to the incubator in a static position until use. On EDD 11, the hole in the shell was extended to a diameter of approximately 3 cm in order to provide better access to the chorioallantoic membrane (CAM) during experiments.
Eggs were placed under an Eclipse 600 FN epi-fluorescence microscope equipped with a Plan Apo 4/0.2, working distance 20 objective (Nikon). Microscopic observation and illumination of a region of the CAM was performed as described previously [Lim et al., Photochem Photobiol 2010, 86:397-402; Lim et al., J Med Chem 2010, 53:2865-2874; Nowak-Sliwinska et al., Angiogenesis 2010, 13:281-292]. Illumination was provided by a 100 W high pressure Hg-arc lamp. Light doses were adjusted with neutral density filters and measured with a calibrated Field-Master GS power meter (Coherent Inc.). Fluorescence images were acquired with an F-view II 12-bit monochrome Peltier-cooled digital CCD camera driven with analySIS DOCU software (Soft Imaging System GmbH).
For excitation and detection of imidazoacridinones (IAs) or sunitinib, the microscope was equipped with a filter set (Nikon) characterized by excitation wavelengths of 420±20 nm and emission wavelengths of >470 nm,
After the treatment the eggs were numbered, covered and returned to the incubator. Each treatment group included 5 eggs.
Chorioallantoic membranes (CAMs) were intravenously injecting chorioallantoic membranes with 20 μl of a solution of FITC-dextran (20 kDa, 25 mg/ml). Fluorescence angiography was then performed using light from an Hg-arc lamp and light filters (Nikon) which provided excitation wavelengths of 470±20 nm and emission wavelengths of >520 nm for observing the fluorescence. In order to increase the quality of the recorded angiographs, a light absorber, in the form of India ink, was injected (30 μl) into the extra-embryonic cavity. The purpose of this second injection was to decrease the influence of the CAM auto-fluorescence background, which changes rapidly with time due to the embryo's movement. The India ink was filtered shortly before injection, using a sterile cellulose acetate membrane with 0.2 μm pores (Renner GmbH).
Photodynamic therapy (PDT) was performed at embryo development day (EDD) 11, at which stage the CAM is fully developed and contains a vessel network with a regular capillary plexus. The imidazoacridinones were intravenously injected into the main vessel of the CAM through a 33-gauge needle fitted to a 100 μl syringe (Hamilton), at a concentration of 1 mg/ml and a volume of 100 μl, which corresponds to a dose of 100 μg, or approximately 10 mg/kg embryo body weight.
One minute after injection, a region of the CAM which contained vessels of diameters in a range of 5 to 70 μm was illuminated (420±20 nm) at a light dose of 20 J/cm^2 and an irradiance of […]. […]
The illuminated area was 0.02 cm^2, as delimited by an optical diaphragm. The fluorescence of sunitinib was visible in the vasculature of the CAMs prior to PDT.

A549/K1.5 cells [5] = test: XTT cytotoxicity assay with and without illumination; format: cell-based, Human; details: A549/K1.5
Procedure: Human non-small cell lung cancer A549 cells and their ABCG2-overexpressing MDR (multi-drug resistant) A549/K1.5 sub-line; ovarian carcinoma cell line 2008 and its stable MRP1-transfectant 2008/MRP1; and human non-small lung cancer cell line SW1573 and its ABCB1-overexpressing subline SW1573/2R160) were maintained in RPMI-1640 medium supplemented with 10% fetal bovine serum, 2 mM glutamine, 100 μg/ml penicillin and streptomycin (Biological Industries, Beth-Haemek, Israel) in a humid atmosphere containing 5% CO2 at 37° C.
(§5) Parental cells and their MDR (multi-drug resistant) sub-lines were seeded in 96-well plates (2×10^4 cells/well in 90 μl growth medium/well). […] Following incubation for 2 hours, the drug-containing medium was replaced by drug-free medium. The cells were then placed on an illuminator plate (Model 460, thin line series, S&S X-Ray Products Inc., Brooklyn, N.Y.) for 1 hour, thereby achieving a light dose of 5 J/cm^2 white light. After illumination, plates were further incubated for an additional 24 hours.
Cell viability was determined using an XTT (2,3-bis-(2-methoxy-4-nitro-5-sulfophenyl)-2H-tetrazolium-5-carboxanilide) Cell Proliferation Kit (Biological Industries). The drug concentrations required to inhibit cell growth by 50% (i.e., IC50 values) were determined from the cell survival curves in the absence and in the presence of illumination. Results are presented as mean values of at least three independent experiments.

[6] = Absorption, emission and excitation spectra; format: physicochemical; details: aqueous 0.9% NaCl
Procedure: Stock solutions containing sunitinib or the imidazoacridinones (IAs) C-1375 and C-1379 in 100% dimethyl sulfoxide were diluted with aqueous 0.9% NaCl solution under continuous stirring. Absorption spectra were recorded with a two-beam Cary 500 UV-VIS-NIR spectrophotometer (Varian) in 1 cm long Suprasil® quartz cuvettes (Hellma), at an average scan speed of 600 nm/minute, at 20° C. The steady state emission and excitation spectra were recorded with an LS 50B luminescence spectrometer (Perkin-Elmer).

A549 cells [7] = test: XTT cytotoxicity assay with and without illumination
Procedure: as §5
Cell viability was determined using an XTT (2,3-bis-(2-methoxy-4-nitro-5-sulfophenyl)-2H-tetrazolium-5-carboxanilide) Cell Proliferation Kit (Biological Industries). […] Results are presented as mean values of at least three independent experiments.

[8] = tested on: Human A2780 ovarian carcinoma tumors; test: PDT of tumors transplanted onto CAM; format: in vivo; details: 12 μg per embryo i.v., 420 nm 34 J/cm^2, two rounds; vs C-1379 without illumination
Procedure: Human A2780 ovarian carcinoma cells were used to establish tumor xenografts in the CAM. Tumor spheroids were grown by a hanging drop technique, resulting in spheroids with a predefined size. A2780 cells were suspended in medium containing 20% Methocel™ (Sigma-Aldrich, St. Louis, USA), and 50 μl drops (1×10^6 cells/drop) were dispensed on the internal part of the lid of a Petri dish. After 24 hours, spheroids were harvested and placed on the CAM at embryonic development day (EDD) 7. Two transplanted human A2780 ovarian carcinoma tumor spheroids, containing 10^6 cells, were grown on a single CAM, and 300 μM C-1379 was injected intravenously at a concentration of 12 μg per embryo at EDD 11.
Prior to further treatment, both tumors were imaged by imidazoacridinone (C-1379) fluorescence angiography, as described hereinabove. One minute after C-1379 administration, one of the tumors was illuminated at a wavelength of 420 nm (34 J/cm^2, 70 mW/cm^2). 24 hours later, both tumors were visualized by FITC-dextran angiography, as described hereinabove, and by standard photography. Immediately thereafter, a second round of C-1379 intravenous administration and PDT (on one of the tumors) was performed as previously. The CAM was then incubated for two more days. […]

SMILES: COc1cccc2c1C(=O)c1c(O)c3c(c(O)c1C2=O)C[C@@](O)(C(=O)CO)C[C@@H]3O[C@H]1C[C@H](N)[C@H](O)[C@H](C)O1 [doxorubicin]
- lysosomal photodestruction upon illumination (A549/K1.5 cells [1]; A549/K1.5, 10 μM, 470 nm, 20 seconds of illumination): nearly all of the lysosomes had ruptured

SMILES: CCN(CC)CCCC(C)Nc1ccnc2cc(Cl)ccc12 (stereo not shown) [chloroquine]
- increase in lysosomal fluorescence compared to untreated cells (A549 cells [2]; 24 hours): 8.4 fold
- increase in lysosomal fluorescence compared to untreated cells (A549 cells [2]; 48 hours): 21.7 fold
- increase in the lysosomes, dose relation (A549 cells [2]; 20, 50 or 100 μM, 24 hours): dose-dependent

SMILES: CO/C1=C\C(C)=C\[C@@H](C)[C@@H](O)[C@@H](C)C/C(C)=C/C=C/[C@H](OC)[C@@H]([C@@H](C)[C@@H](O)[C@H](C)[C@@]2(O)C[C@@H](O)[C@H](C)[C@@H](C(C)C)O2)OC1=O [bafilomycin A1]
- effect on lysosomal accumulation of C-1330 (A549/K1.5 cells [1]; A549/K1.5): completely abolished
- effect on lysosomal accumulation of C-1330 (A549 cells [3]): completely abolished

SMILES: CCN(CC)CCNC(=O)c1c(C)[nH]c(/C=C2\C(=O)Nc3ccc(F)cc32)c1C [sunitinib, reference compound]
- location of drug fluorescence in CAM ([4]; administered intravenously): visible within the vasculature
- location of drug fluorescence in CAM ([4]; administered topically): visible exclusively outside the vasculature

SMILES: CCN(CC)CCNc1ccc2ncn3c4ccc(O)cc4c(=O)c1c23 [C-1311]
- lysosomal photodestruction on co-treatment with ABCG2 inhibitor (A549/K1.5 cells [1]; MDR cells, 20 μM C-1311 + 10 μM fumitremorgin C, 2 hours, illumination): intense lysosomal photodestruction

SMILES: CCN(CC)CCCNc1ccc2nc(C)n3c4ccc(OC)cc4c(=O)c1c23 [C-1379]
- Fold sensitization (A549/K1.5 cells [5]; control vs illumination): 20
- LD50 Control (A549/K1.5 cells [5]; no illumination): 15.192 ± 0.58 µM
- Survival at 3000 nM Control (A549/K1.5 cells [5]; no illumination): 82 ± 4%
- LD50 Illumination (A549/K1.5 cells [5]; white light 1 hour (5 J/cm^2)): 747 ± 45 nM
- Survival at 3000 nM Illumination (A549/K1.5 cells [5]; white light illumination): 7 ± 0.1%
- Peak absorption [6]: 443 nm
- Peak emission [6]: 554 nm
- Peak excitation [6]: 447 nm
- Fold sensitization (A549 cells [7]; control vs illumination): 32
- Survival at 3000 nM Control (A549 cells [7]; no illumination): 60 ± 1%
- LD50 Control (A549 cells [7]; no illumination, 2 h drug, XTT 24 h later): 6.349 ± 0.867 µM
- LD50 Illumination (A549 cells [7]; white light 1 hour (5 J/cm^2)): 199 ± 31 nM
- Survival at 3000 nM Illumination (A549 cells [7]; white light illumination): 2 ± 0.3%
- vascular effect in illuminated area ([4]; 1 μg/embryo i.v., 20 J/cm^2, 24 hours after illumination): massive occlusion of the capillary network
- vascular effect in illuminated area ([4]; 100 μg/embryo i.v., 20 J/cm^2, 1 minute after injection, 24 hours after treatment): vaso-occlusion within the illuminated area
- effect on tumor growth [8]: inhibition of tumor growth
- effect on tumor vasculature [8]: vaso-occlusion and destruction of tumor vasculature

SMILES: Cl.N [ammonium chloride]
- effect on lysosomal accumulation of C-1330 (A549/K1.5 cells [1]; A549/K1.5): completely abolished
- effect on lysosomal accumulation of C-1330 (A549 cells [3]): completely abolished
